Measurements: patent publication US10660928B2, “Pharmaceutical composition containing combination extracts of Moutan Root Bark, Angelica Dahurica Root, bupleurum root or fractions thereof for prevention and treatment of neurodegenerative disorder” (UNIVERSITY-INDUSTRY COOPERATION GROUP OF KYUNG HEE …, priority 2014, dated 2020)

Key:
NF-kB p65/ReIA = assay: RT-PCR of NF-kB p65/ReIA mRNA, LPS-induced cells; type: cell-based, mouse; details: BV2, treatment 1.0 μg/ml, LPS 100 ng/ml; negative control 100.00
Procedure: (§1) Particularly, BV2 cells were cultured by the same manner as described in Experimental Example <3-1>, and inflammatory response was induced. Then, RT-PCR was performed with the cells by the same manner as described in Experimental Example <1-4>, followed by quantitative analysis of the expression levels of iNOS, IL-6, and NF-kB p65/ReIA genes. The normal control was not treated with the extract of the invention or the active component thereof but treated with DMSO alone. The negative control was not treated with the extract or the active component but treated with 100 ng/ml of LPS alone to induce inflammatory response. Then, the expression of the inflammatory response marker gene was confirmed by the same manner as described above.

[1] = test system: BV2, the mouse microglial cell line; assay: Cell survival rate (calcein) in normal microglial cells, cytotoxicity; type: cell-based; details: 1.0 μg/ml, 4 hours
Procedure: Particularly, BV2, the mouse microglial cell line, was inoculated in 1:1 DMEM (Dulbeco's Modified Eagle's Medium; Gibco, USA) supplemented with 10% FBS, followed by culture in a 37° C., 5% CO2/95% air (O2) incubator. Then, the cultured cells were transferred into a serum free medium at the density of 2.5×10^4 cells/well. The cells were treated with the Bupleurum Root 90% ethanol extract prepared in Example <1-3>, saikosaponin A, saikosaponin B2, saikosaponin B4, or saikosaponin D at the concentration of 1.0 μg/ml for 4 hours. The cells were collected and the cell survival rate was measured by using calcein. The survival rate of the cells that were increased or decreased compared with that of the normal control cells not-treated with the extract or its active component above and instead treated with DMSO was calculated and presented as percentage (%).

BV2 cells [2] = assay: Griess method, nitric oxide in medium of LPS-induced cells; type: cell-based, mouse; details: BV2, treatment 1.0 μg/ml, inducer LPS 100 ng/ml
Procedure: Particularly, BV2 cells were cultured by the same manner as described in Experimental Example <3-1>, and inflammatory response was induced. Then, 100 μl of the cell culture medium was obtained, to which 100 μl of Griess reagent comprising hydrochloric acid containing 5% sulfanilamide and 2% naphthylethylenediamine was added, followed by reaction in a dark room for 30 minutes. Upon completion of the reaction, OD540 was measured with an EISA microplate reader (Versamax, USA). The concentration of nitric oxide in the medium was calculated using the standard calibration curve of sodium nitrite. The normal control was not treated with the extract or the active component thereof but treated with DMSO. The negative control was treated with 100 ng/ml of LPS alone to induce inflammatory response but not treated with the extract or the active component. Then, the nitric oxide concentration reduction effect was investigated by the same manner as described above.
(§2) Particularly, BV2 cells were cultured by the same manner as described in Experimental Example <3-1>, and inflammatory response was induced. Then, 100 μl of the cell culture medium was obtained, to which 100 μl of Griess reagent comprising hydrochloric acid containing 5% sulfanilamide and 2% naphthylethylenediamine was added, followed by reaction in a dark room for 30 minutes. Upon completion of the reaction, OD540 was measured with an EISA microplate reader (Versamax, USA). The concentration of nitric oxide in the medium was calculated using the standard calibration curve of sodium nitrite. To measure the ROS concentration, the cells were treated with 1 μM DCF-DA and 0.05 μM bisbenzimide (Hoechst 33342), followed by staining at 37° C. for 1 hour. After the staining, the fluorescence intensity of DCF-DA was measured at 485 nm/535 nm, and the fluorescence intensity of bisbenzimide was measured at 335 nm/460 nm. Based on the ratio of DCF-DA/bisbenzimide, ROS was quantified. The amount of ROS, either increased or decreased, was compared with that of the normal control not treated with the extract but treated with DMSO, and the results were presented as %. The negative control was treated with 100 ng/ml of LPS alone to induce inflammatory response but not treated with the extract or the active component thereof. Then, the nitric oxide concentration reduction effect and the ROS concentration reduction effect were investigated by the same manner as described above.

BV2 cells [3] = assay: DCF-DA intracellular ROS, LPS-induced cells; type: cell-based, mouse; details: BV2, treatment 1.0 μg/ml, inducer LPS 100 ng/ml
Procedure: Particularly, BV2 cells were cultured by the same manner as described in Experimental Example <3-1>, and inflammatory response was induced. Then, the cells induced with inflammatory response were treated with 1 μM DCF-DA and 0.05 μM bisbenzimide (Hoechst 33342), followed by staining at 37° C. for 1 hour. After the staining, the fluorescence intensity of DCF-DA was measured at 485 nm/535 nm, and the fluorescence intensity of bisbenzimide was measured at 335 nm/460 nm. Based on the ratio of DCF-DA/bisbenzimide, ROS was quantified. The amount of ROS, either increased or decreased, was compared with that of the normal control not treated with the extract or the active component thereof but treated with DMSO, and the results were presented as %. The negative control was treated with 100 ng/ml of LPS alone to induce inflammatory response but not treated with the extract or the active component thereof. Then, the generation of ROS was investigated by the same manner as described above.
as §2

BV2 cells [4] = assay: MTT assay, LPS-induced inflammatory response; type: cell-based, mouse; details: BV2, treatment 1.0 μg/ml, inducer LPS 100 ng/ml
Procedure: Particularly, BV2 cells were cultured by the same manner as described in Experimental Example <3-1>. Then, the cultured cells were transferred into a serum free medium at the density of 1×10^5 cells/well. The cells were treated with the Bupleurum Root 90% ethanol extract prepared in Example <1-3>, saikosaponin A, saikosaponin B2, saikosaponin B4, or saikosaponin D at the concentration of 1.0 μg/ml, followed by culture for 4 hours. The cells were then treated with 100 ng/ml of lipopolysaccharide (LPS), followed by culture for 20 hours to induce inflammatory response. MTT assay was performed with the cells induced with inflammatory response by the same manner as described in Experimental Example <1-2>. The damage of mitochondria complex 1 was confirmed to see how the damage level was either increased or decreased, compared with the normal control group treated with DMSO without the extract or its active component. In the meantime, the negative control group was treated with 100 ng/ml of LPS alone to induce inflammatory response and was not treated with the extract or its active component. Then, MTT assay was performed by the same manner as described above.

interleukin-6, (IL-6) = assay: RT-PCR of IL-6 mRNA, LPS-induced cells; type: cell-based, mouse; details: BV2, treatment 1.0 μg/ml, LPS 100 ng/ml; negative control 100.00
Procedure: as §1

[5] = test system: inducible nitric oxide synthase (iNOS); assay: RT-PCR of iNOS mRNA, LPS-induced cells; type: cell-based, mouse; details: BV2, treatment 1.0 μg/ml, LPS 100 ng/ml; negative control 100.00
Procedure: as §1

Compound	p65/ReIA mRNA (% of control) (NF-kB p65/ReIA)	Cell survival rate (% of control) [1]	NO (BV2 cells [2]) [µM]	DCF-DA-ROS (% of control) (BV2 cells [3])	MTT (% of control) (BV2 cells [4])	IL-6 mRNA (% of control) (interleukin-6, (IL-6))	iNOS mRNA (% of control) [5]
C[C@H]1O[C@@H](O[C@H]2CC[C@@]3(C)[C@@H](CC[C@]4(C)[C@@H]3C=CC3=C5CC(C)(C)CC[C@]5(CO)[C@H](O)C[C@]34C)[C@]2(C)CO)[C@H](O)[C@@H](O[C@@H]2O[C@H](CO)[C@@H](O)[C@H](O)[C@H]2O)[C@H]1O [saikosaponin B2, (3b,4a,16a)-16,23,28-Trihydroxyoleana-11,13(18)-dien-3-yl-6-deoxy-3-O-beta-D-glucopyranosyl-beta-D-galactopyranoside]	50.18 ± 2.67 % of control	102.74 ± 8.55 % of control	19 ± 2.68	214.22 ± 1.87 % of control	88.85 ± 6.48 % of control	29.67 ± 2.39 % of control	18.11 ± 2.39 % of control
C[C@H]1O[C@@H](O[C@H]2CC[C@@]3(C)[C@@H](CC[C@]4(C)[C@@H]3C=C[C@]35OC[C@@]6(CCC(C)(C)C[C@H]63)[C@H](O)C[C@]54C)[C@]2(C)CO)[C@H](O)[C@@H](O[C@@H]2O[C@H](CO)[C@@H](O)[C@H](O)[C@H]2O)[C@H]1O [saikosaponin D, (3b,4a,16a)-13,28-Epoxy-16,23-dihydroxyolean-11-en-3-yl 6-deoxy-3-O-beta-D-glucopyranosyl beta-D-galactopyranoside]	49.80 ± 3.54 % of control	97.45 ± 3.99 % of control	18.1 ± 2.93	218.61 ± 2.71 % of control	86.73 ± 1.25 % of control	26.58 ± 1.75 % of control	21.23 ± 1.99 % of control
CO[C@@H]1C=C2[C@@H]3CC(C)(C)CC[C@]3(CO)[C@H](O)C[C@@]2(C)[C@]2(C)CC[C@H]3[C@](C)(CO)[C@@H](O[C@@H]4O[C@H](C)[C@H](O)[C@H](O[C@@H]5O[C@H](CO)[C@@H](O)[C@H](O)[C@H]5O)[C@H]4O)CC[C@]3(C)[C@@H]12 [saikosaponin B4, (3β,11α,16α)-16,23,28-Trihydroxy-11-methoxyolean-12-en-3-yl-6-deoxy-3-O-β-D-glucopyranosyl-β-D-galactopyranoside]	53.70 ± 4.72 % of control	97.99 ± 2.86 % of control	17.2 ± 2.11	223.26 ± 2.86 % of control	87.12 ± 2.56 % of control	28.53 ± 1.92 % of control	26.06 ± 3.27 % of control
